Read-outs that look alike come from different tables or passages of the source.
How the values were obtained:
[1] = tested on: cellular uptake of 1 in HeLa Kyoto cells; test: cells; assay type: cell-based; settings: HeLa; for MIC, inhibition of cellular uptake of 1 / IC50 / minimal effective concentration: removal, tinc 0.5 h with 1 (10 µM); for IC50: read-out: IC50, inhibition of cellular uptake of 1; for minimal effective concentration: read-out: MIC, inhibition of cellular uptake of 1
Experimental: (§1) With COCs 1 and 2 as cell-penetrating reporters, a fully automated, fluorescent microscopy image-based high-content high-throughput (HCHT)[19] inhibitor screening assay was developed. HeLa cells in multiwell plates are incubated with a reporter at constant and inhibitors at varying concentrations and incubation times. Hindered reporter uptake then causes decrease of fluorescence inside of cells (Fig. 3a). Automated data analysis[19] was established to extract average fluorescence intensity per cell and, at the same time, cell viability from propidium iodide negative nuclei count (Fig. 3 and S3–S6 ^†). Standard assay conditions consisted of pre-incubation of HeLa cells with inhibitors for different periods of time, followed by the removal of inhibitors and the addition of reporters, thus excluding possible interactions between the two in the extracellular environment. In alternative co-incubation conditions, inhibitors were not removed before the addition of reporters to allow for eventual interactions between the two.
4. High-Content High-Throughput (HCHT) Inhibitor Screening
4.1. General Procedure for HCHT Inhibitor Screening
4.1.1. Pre-Incubation of Inhibitors
HeLa Kyoto cells were seeded at 1.2 ×10^4 cells/well in FluoroBrite DMEM + 10% FBS on μ-Plate 96-well Black ibiTreat sterile and kept at 37 °C with 5% CO2 overnight. Next day, serial dilutions of the inhibitors in PBS (10x final concentration), reporter 1 or 2 (100 μM in PBS) and a solution of Hoechst 33342 (100 μg/mL) and PI (10 μg/mL) in PBS were prepared freshly in a 96-well V-bottom plate. Then, cells were washed with PBS ([…]) and the media was exchanged to FluoroBrite DMEM (4 x 150 μL/well) using a plate washer (Biotek EL406®), keeping always a final volume of 135 μL/well. The inhibitor solutions from the V-bottom plate were added to the cells (15 μL/well, 10x final concentration in PBS) using an electronic multichannel pipettes to reach a final volume of 150 μL/well. Cells were incubated for the time of interest (for details of each inhibitors, see Section 4.3 and 4.4) at 37 °C with 5%
CO2. After this, cells were washed again using the plate washer and reporter solution 1 or 2 from the V-bottom plate was added (15 μL/well) using an electronic multichannel pipettes to reach a final volume of 150 μL/well and a final concentration of 10 μM, except for the control wells, where only PBS was added (15 μL/well). After 30 min of incubation at 37 °C with 5% CO2, the plate was washed again using the plate washer. Then, the solution of Hoechst 33342 and PI from V-bottom plate was added (15 μL/well) using an electronic multichannel pipettes to reach a final volume of 150 μL/well. After 15 min of incubation at 37 °C with 5% CO2, the plate was washed one last time and the cells were kept in clean FluoroBrite DMEM. During imaging, samples were kept at 37 °C with 5% CO2 in the microscope.
4.1.2. Co-Incubation of Inhibitors and Reporters […]
serial dilutions of the inhibitors in PBS (10x final concentration), reporter 1 or 2 (110 μM in […]
freshly in a 96-well V-bottom plate. Then, cells were washed with the plate washer. The inhibitor solutions from the V-bottom plate were added to the cells (15 μL/well, 10x final concentration in PBS) using an electronic multichannel pipettes to reach a final volume of 150 μL/well. Cells were incubated for the time of interest (for details of each inhibitors, see Section 4.3 and 4.4) at 37 °C with 5% CO2. Reporter solution 1 or 2 from V-bottom plate was then added (15 μL/well) using an electronic multichannel pipettes to reach a final volume of 165 μL/well and a final concentration of 10 μM 30 min before the next washing process, except for the control wells, where only PBS was added (15 μL/well). The plate was washed again using the plate washer. The solution of Hoechst 33342 and PI from V-bottom plate was added (15 μL/well) using an electronic multichannel pipettes to reach a final volume of 150 μL/well. After […]

HeLa Kyoto cells [2] = test: Relative cell viability in HCHT screening (propidium iodide negative nuclei count); assay type: cell-based; settings: HeLa, removal, tinc 0.5 h with 1 (10 µM), read-out: GI50, concentration causing 50% cell growth inhibition
Experimental: as §1
(§2) To be able to extract the fluorescent integrated intensity information (sum of the intensities of all the pixels included in the mask) from the green channel for live cell only, the image analysis pipeline contains several steps of cell filtering and selection:
(§3) 1) Firstly, PI is used to stain any remaining nuclei of dead cell. In the analysis pipeline, all the “dead” nuclei are detected based on their fluorescent intensity in the PI channel (Figure […]
(§4) Fig. S4 (A) PI positive nuclei mask (fluorescent intensity threshold of 1000). (B) Overlap image of dead nuclei mask and original all cell body mask. (C) Resulting cell mask after removing any cell marked by a dead nucleus, new mask is called “Live Cell”. Scale bar: 50 μm.
(§5) 2) Elimination of non-full cells from the border of the image is performed, to avoid inaccurate fluorescent integrated intensity quantification (fluorescent integrated intensity = sum of intensity of all the pixel of the object) (Figure S5).
(§6) (1 picture or pasted object on this page, not shown here)
(§7) 4.3. HCHT Inhibitor Screening with ETP as Reporter […]
(§8) Relative cell viability (RV) for each condition in the presence of inhibitors were calculated using the count value of living cells by dividing the count value of living cells with addition of reporter 1, Hoechst 33342 and PI, for each set of experiments. Duplicates were performed for each condition. The resulting dependence of the relative cell viability (RVrel) to the concentration of inhibitors (cinhibitor) was plotted and fitted with Equation (S2) to retrieve the concentration causing 50% cell growth inhibition (GI50) value and the Hill coefficient (n).
(§9) RVrel = 1 / (1 + (GI50 / cinhibitor)n) (S2)
(§10) Note: Reporter 1 were not toxic for 1 h at 10 μM.S2 Also in this study, the count value of living cells with addition of reporter 1, Hoechst 33342 and PI is always similar to that of living cells with only addition of Hoechst 33342 and PI.
as §8, with “with” for “in the presence of”, “2,” for “1,”
(§11) Note: Reporter 2 were not toxic for 24 h at 10 μM.S3 Also in this study, the count value of living cells with addition of reporter 2, Hoechst 33342 and PI is always similar to that of living cells with only addition of Hoechst 33342 and PI.
(§12) 4.4.1. Screening with Disulfides as Inhibitors
(§13) 4.4.1.1. Screening with ETP as Inhibitors
(§14) Fig. S35 Automatically analyzed HCHT data showing fluorescence intensity (filled symbols) and relative viability (empty symbols) of HeLa cells after pre-incubation with 3 for 1 h (blue […]

HeLa Kyoto cells [3] = settings: cited from earlier work
[4] = Relative cell viability in HCHT screening (propidium iodide negative nuclei count); assay type: cell-based; settings: human; for GI50: HeLa, removal, tinc 0.5 h with 1 (10 µM), read-out: GI50, concentration causing 50% cell growth inhibition
Experimental: as §1, §2, §3, §4, §5, §6, §7, §8, §9, §10
as §8, with “with” for “in the presence of”, “2,” for “1,”
as §11, §12, §13, §14

thiol-mediated uptake = test: Inhibition of thiol-mediated uptake, reporter and protocol not stated; assay type: cell-based; settings: preliminary results; note 34
[5] = HeLa Kyoto, 0.5 h, tpre 0.5 h with inhibitor
[6] = HeLa Kyoto, 1 h, tpre 1 h with inhibitor
[7] = GI50, concentration causing 50% cell growth inhibition
[8] = HeLa Kyoto, 0.25 h, tpre 0.25 h with inhibitor
[9] = HeLa Kyoto, tpre 0.25 h with inhibitor
[10] = HeLa Kyoto, tpre 1 h with inhibitor

For `[O-][S+]1CC(O)C(O)CS1` (stereo not drawn) [compound 22], the “MIC, inhibition of cellular uptake of 1” value ([1]; tpre 1 h with inhibitor) was 0.8 mM, the IC50 ([1]; tpre 1 h with inhibitor) was over 5000 µM and the “MIC, inhibition of cellular uptake of 1” value ([1]; tpre 2 h with inhibitor) was 0.6 mM. For the same molecule, the IC50 ([1]; tpre 2 h with inhibitor) was over 2000 µM, the “MIC, inhibition of cellular uptake of 1” value ([1]; tpre 4 h with inhibitor) was 0.3 mM and the IC50 ([1]; tpre 4 h with inhibitor) was over 2000 µM. It also gave a GI50 (HeLa Kyoto cells [2]; tpre 1 h with inhibitor) of 4.4 ± 0.2 mM, a GI50 (HeLa Kyoto cells [2]; tpre 2 h with inhibitor) of over 5 mM and a GI50 (HeLa Kyoto cells [2]; tpre 4 h with inhibitor) of over 2 mM.
In the case of `CCN1C(=O)C2SSC1C(=O)N2CC(=O)NCCNC(=S)Nc1ccc(-c2c3ccc(=O)cc-3oc3cc(O)ccc23)c(C(=O)O)c1` (stereo not drawn) [compound 1], the Toxicity of reporter (HeLa Kyoto cells [3]; 1 h at 10 μM, ref S2) is listed as “not toxic”.
In the case of `O=C(NCCNC(=S)Nc1ccc(-c2c3ccc(=O)cc-3oc3cc(O)ccc23)c(C(=O)O)c1)c1ccc2c(c1)SSSSS2` [compound 2], the Toxicity of reporter (HeLa Kyoto cells [3]; 24 h at 10 μM, ref S3) is listed as “not toxic”.
In the case of `O=C(O)c1cc(SSc2ccc([N+](=O)[O-])c(C(=O)O)c2)ccc1[N+](=O)[O-]` [compound 20, 5,5’-Dithiobis(2-nitrobenzoic acid), reference compound], the “Inhibition of uptake of reporter 1, in words” value [1] is reported as “minor inhibition up to around 2 mM, which disappeared again at higher concentrations”, the minimal effective concentration [1, 5] is reported as 200 µM and the minimal effective concentration [1, 6] is reported as 500 µM. The GI50 at 0.5 h [4, 7] was over 10 mM and the GI50 at 1 h [4, 7] was over 10 mM.
With `O=c1c2ccccc2[se]n1-c1ccccc1` [ebselen] the “Inhibition of thiol-mediated uptake, in words” value (thiol-mediated uptake) was “inhibits”.
In the case of `CS(=O)(=O)c1nc2ccccc2s1` [compound 21], the minimal effective concentration [1, 8] is reported as 300 µM, the IC50 [1, 5] is reported as over 500 µM and the minimal effective concentration [1, 5] is reported as 100 µM. It also gave a minimal effective concentration [1, 6] of 300 µM, an IC50 [1, 9] of over 500 µM and an IC50 [1, 10] of over 500 µM. The “MIC (concentration that causes ∼15% reduction of reporter uptake), against reporter 1” value ([1]; pre-incubation time not given (Fig. 2: 1 h pre-incubation, 30 min with reporter; some 15 min)) was “≈ 300 μM”, the GI50 ([4]; tpre 0.25 h with inhibitor) was over 500 µM and the GI50 ([4]; tpre 0.5 h with inhibitor) was over 500 µM. It also gave a GI50 ([4]; tpre 1 h with inhibitor) of over 500 µM.
In the case of `O=C(O)CCCCC1CCS[S+]1[O-]` (stereo not drawn) [compound 27], the minimal effective concentration [1, 6] is reported as over 2000 µM, the minimal effective concentration ([1]; HeLa Kyoto, 2 h, tpre 2 h with inhibitor) is reported as over 2000 µM and the minimal effective concentration ([1]; HeLa Kyoto, 4 h, tpre 4 h with inhibitor) is reported as over 2000 µM. The IC50 [1, 10] was over 2000 µM, the IC50 ([1]; HeLa Kyoto, tpre 2 h with inhibitor) was over 2000 µM and the IC50 ([1]; HeLa Kyoto, tpre 4 h with inhibitor) was over 2000 µM. The GI50 ([4]; tpre 1 h with inhibitor) was over 5000 µM, the GI50 ([4]; tpre 2 h with inhibitor) was over 5000 µM and the GI50 ([4]; tpre 4 h with inhibitor) was 1800 ± 300 µM.
Molecule `CS(=O)(=O)c1nnc(-c2ccccc2)o1` [compound 14] has a minimal effective concentration [1, 8] of 40 µM, an IC50 [1, 5] of 204 ± 63 µM and a minimal effective concentration [1, 5] of 20 µM. For the same molecule, the IC50 [1, 9] was 137 ± 28 µM, the GI50 ([4]; tpre 0.25 h with inhibitor) was over 500 µM and the GI50 ([4]; tpre 0.5 h with inhibitor) was 410 ± 99 µM.

From paper PMC8179002, “Inhibitors of thiol-mediated uptake” (Chemical Science, 2020)
